{
  "source": "patent US20250120988A1",
  "about": "“SMALL MOLECULE COMPOUND FOR TREATING ISCHEMIC STROKE, ITS PREPARATION METHOD, AND APPLICATION” (SHANGHAI SIXTH PEOPLE'S HOSPITAL, priority 2023, published 2025)",
  "key": {"ASIC1a": {"target": "T1, ASIC1a (Homo sapiens, UniProt P78348)", "T1 construct": "expressed in transfected cells", "T1 sequence (P78348 1-528)": "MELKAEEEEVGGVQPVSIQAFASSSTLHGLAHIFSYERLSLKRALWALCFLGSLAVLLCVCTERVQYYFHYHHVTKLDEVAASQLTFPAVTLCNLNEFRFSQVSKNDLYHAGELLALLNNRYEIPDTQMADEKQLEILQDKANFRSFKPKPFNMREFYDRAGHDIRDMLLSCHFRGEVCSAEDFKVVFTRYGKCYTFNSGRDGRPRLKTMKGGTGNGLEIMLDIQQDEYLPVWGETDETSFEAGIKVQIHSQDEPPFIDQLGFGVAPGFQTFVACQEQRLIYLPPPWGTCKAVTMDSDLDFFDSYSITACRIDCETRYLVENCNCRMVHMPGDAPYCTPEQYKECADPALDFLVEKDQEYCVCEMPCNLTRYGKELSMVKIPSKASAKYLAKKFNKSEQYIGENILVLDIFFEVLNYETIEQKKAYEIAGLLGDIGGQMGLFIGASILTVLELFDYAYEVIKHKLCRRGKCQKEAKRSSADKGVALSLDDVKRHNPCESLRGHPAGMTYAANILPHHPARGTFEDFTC", "assay": "Whole-cell patch clamp, competitive blocking of glutamate-potentiated ASIC1a current in CHO cells", "type": "cell-based", "settings": "pH 7.0, 500 μM glutamate, read-out: IC50 of competitive antagonism against the glutamate binding ASIC1a current", "experimental": "Figure a illustrates the LK-2 concentration-dependent blocking of signal of ASIC1a current (recorded from the same CHO cell) activated at pH 7 in patch clamp experiments, with a glutamate concentration of 500 μM and LK-2 concentrations of 1, 10, 50, and 100 μM in sequence. […] Smaller values indicate stronger blocking effects of the compound.\n[drawing 3] • 2. Electrophysiological experiments refer to the use of patch clamp techniques to overexpress ASICs (ASIC1a) and NMDARs (GluNR1+NR2A or GluNR1+NR2B) in CHO cell lines (Chinese hamster ovary cells), with the above-mentioned proteins carrying GFP green fluorescent protein for identification under fluorescence microscopy. The synthesized small molecules are separately tested for their blocking effects on the currents generated by the two types of receptors, and the IC50 values are calculated. • 2.1 The experimental steps of the membrane clamp technique are as follows. […]\nChinese hamster ovary cells (CHO) and HEK293T cells (provided by the Chinese Academy of Sciences Stem Cell Bank) were cultured separately in F12 and DMEM media (Gibco) containing 10% FBS (Gibco). […] All experiments were performed 24-48 hours after transfection, and all culture dishes were washed three times with ECF before the experiment, and GFP-positive CHO cells were observed under a fluorescence microscope for patch clamp recording. […]"}, "GluN1+NR2A": {"target": "T2, GluN1+NR2A (Homo sapiens, UniProt Q05586+Q12879)", "T2 construct": "expressed in transfected cells; host or cells: CHO cells", "T2 sequence (Q12879 23-1464, other chains not shown)": "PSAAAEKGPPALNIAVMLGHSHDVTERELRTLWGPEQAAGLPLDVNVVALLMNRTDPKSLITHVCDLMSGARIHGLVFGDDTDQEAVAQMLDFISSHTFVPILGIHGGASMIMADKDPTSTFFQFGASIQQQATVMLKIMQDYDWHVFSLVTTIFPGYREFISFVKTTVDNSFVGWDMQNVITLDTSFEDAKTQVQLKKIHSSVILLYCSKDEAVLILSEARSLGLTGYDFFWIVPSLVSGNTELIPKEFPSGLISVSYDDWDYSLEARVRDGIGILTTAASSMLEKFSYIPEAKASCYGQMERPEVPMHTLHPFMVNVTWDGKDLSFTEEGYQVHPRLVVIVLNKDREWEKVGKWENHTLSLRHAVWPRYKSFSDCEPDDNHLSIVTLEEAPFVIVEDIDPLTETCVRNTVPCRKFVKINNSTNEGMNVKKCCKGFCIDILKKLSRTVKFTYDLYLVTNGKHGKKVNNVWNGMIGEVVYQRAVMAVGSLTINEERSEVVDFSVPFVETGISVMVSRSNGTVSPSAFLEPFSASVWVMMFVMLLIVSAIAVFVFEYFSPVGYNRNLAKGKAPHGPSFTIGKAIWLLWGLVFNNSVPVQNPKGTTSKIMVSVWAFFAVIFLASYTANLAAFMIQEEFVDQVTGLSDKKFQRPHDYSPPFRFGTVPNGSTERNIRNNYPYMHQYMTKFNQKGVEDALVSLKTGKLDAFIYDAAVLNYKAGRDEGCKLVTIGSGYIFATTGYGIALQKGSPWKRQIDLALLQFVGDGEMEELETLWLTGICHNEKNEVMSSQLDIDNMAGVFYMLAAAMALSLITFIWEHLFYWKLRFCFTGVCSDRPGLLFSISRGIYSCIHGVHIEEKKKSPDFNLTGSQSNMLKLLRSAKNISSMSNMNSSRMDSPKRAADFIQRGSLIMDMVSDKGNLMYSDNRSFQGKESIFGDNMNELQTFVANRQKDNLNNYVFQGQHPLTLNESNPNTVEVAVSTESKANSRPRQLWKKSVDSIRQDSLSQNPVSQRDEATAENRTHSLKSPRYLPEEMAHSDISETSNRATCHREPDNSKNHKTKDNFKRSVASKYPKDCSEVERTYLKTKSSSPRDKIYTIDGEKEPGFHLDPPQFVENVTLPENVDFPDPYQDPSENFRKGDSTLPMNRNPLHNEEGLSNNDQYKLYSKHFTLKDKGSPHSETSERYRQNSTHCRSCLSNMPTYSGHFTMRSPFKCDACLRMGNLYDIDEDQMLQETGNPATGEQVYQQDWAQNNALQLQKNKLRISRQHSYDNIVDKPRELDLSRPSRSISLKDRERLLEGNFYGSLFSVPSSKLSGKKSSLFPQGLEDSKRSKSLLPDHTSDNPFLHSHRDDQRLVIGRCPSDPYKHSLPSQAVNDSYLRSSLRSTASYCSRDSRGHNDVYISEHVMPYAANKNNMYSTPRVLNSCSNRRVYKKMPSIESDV", "assay": "Whole-cell patch clamp, blocking of GluN1+NR2A NMDAR current in CHO cells", "type": "cell-based", "settings": "100 μM NMDA and 1 μM glycine, read-out: IC50 of competitive antagonism against glutamate binding GluN1+NR2A currents", "experimental": "Figure a illustrates LK-2 concentration-dependent blocking of signal of GluN1+GluN2A and GluN1+GluN2B subtypes of NMDAR currents (recorded from the same CHO cell) in patch clamp experiments, with 100 μM NDMA and 1 μM glycine used to activate NMDAR currents. LK-2 concentrations were 1, 10, 100, and 500 μM in sequence. Figure b illustrates the dose-response curves fitted based on the current amplitudes recorded in Figure a, with IC50 representing the half-maximal inhibitory concentration. Smaller IC50 values indicate stronger blocking effects of the compound.\n[drawing 3] • 2. Electrophysiological experiments refer to the use of patch clamp techniques to overexpress ASICs (ASIC1a) and NMDARs (GluNR1+NR2A or GluNR1+NR2B) in CHO cell lines (Chinese hamster ovary cells), with the above-mentioned proteins carrying GFP green fluorescent protein for identification under fluorescence microscopy. The synthesized small molecules are separately tested for their blocking effects on the currents generated by the two types of receptors, and the IC50 values are calculated. • 2.1 The experimental steps of the membrane clamp technique are as follows.\nWhole-cell patch clamp recordings were performed on neurons or CHO cells cultured in a cell-culture dish mounted on a fixed stage upright microscope. The recording electrode (resistance 4-6 MΩ) was made of 1.5 mm borosilicate glass. […]"}},
  "data": [
    {"smiles": "O=C(O)C1CN(C(c2ccccc2)P(=O)(O)O)CCN1", "note": "(centres unmarked) [LK-2]", "values": [
      {"measurement": "IC50", "setting": "ASIC1a", "value": "6.6 ± 2.1", "unit": "µM"},
      {"measurement": "IC50", "setting": "GluN1+NR2A", "value": "93.1 ± 28.3", "unit": "µM"}
    ]}
  ]
}
